Assays:
Assay type in all cases: in vivo
[1] = tested on: pigweed, palmer (palmer pigweed, Amaranthus palmeri); assay: Test E pre-/postemergence: pigweed, palmer; settings: scale 0 to 100
Text: (§1) Seeds of plant species selected from corn (Zea mays), soybean (Glycine max), velvetleaf (Abutilon theophrasti), lambsquarters (Chenopodium album), poinsettia, wild (wild poinsettia, Euphorbia heterophylla), pigweed, palmer (palmer pigweed, Amaranthus palmeri), waterhemp (common waterhemp, Amaranthus rudis), smartweed (ladysthumb smartweed, Polygonum persicaria), surinam grass (Brachiaria decumbens), crabgrass, large (large crabgrass, Digitaria sanguinalis), crabgrass, Brazil (Brazilian crabgrass, Digitaria horizontalis), panicum, fall (fall panicum, Panicum dichotomiflorum), foxtail, giant (giant foxtail, Setaria faberii), foxtail, green (green foxtail, Setaria viridis), goosegrass (Eleusine indica), johnsongrass (Sorghum halepense), ragweed (common ragweed, Ambrosia elation), barnyardgrass (Echinochloa crus-galli), sandbur (southern sandbur, Cenchrus echinatus), arrowleaf sida (Sida rhombifolia), ryegrass, Italian (Italian ryegrass, Lolium multiflorum), dayflower, (VA) (Virginia dayflower, Commelina virginica), field bindweed (Convolvulus arvensis), cocklebur (common cocklebur, Xanthium strumarium), morningglory (Ipomoea coccinea), nightshade (eastern black nightshade, Solanum ptycanthum), kochia (Kochia scoparia), nutsedge, yellow (yellow nutsedge, Cyperus esculentus) and beggarticks (hairy beggarticks, Bidens pilosa) were planted into a silt loam soil and treated preemergence with test chemicals formulated in a non-phytotoxic solvent mixture which included a surfactant. At the same time, plants selected from these crop and weed species were planted in pots containing a growing medium comprising spaghnum peat moss, vermiculite, wetting agent and starter nutrients and treated with postemergence applications of some of the test chemicals formulated in the same manner. Plants ranged in height from 2 to 18 cm for postemergence treatments (1- to 4-leaf stage).
(§2) Treated plants and controls were maintained in a greenhouse for 14 to 21 days, after which time all species were compared to controls and visually evaluated. Plant response ratings, summarized in Table E, are based on a scale of 0 to 100 where 0 is no effect and 100 is complete control. A dash (-) response means no test result.

[2] = tested on: waterhemp (common waterhemp, Amaranthus rudis); assay: Test E pre-/postemergence: waterhemp; settings: scale 0 to 100
Text: as §1, §2

[3] = tested on: crabgrass, Brazil (Brazilian crabgrass, Digitaria horizontalis); assay: Test E pre-/postemergence: crabgrass, Brazil; settings: scale 0 to 100
Text: as §1, §2

[4] = tested on: panicum, fall (fall panicum, Panicum dichotomiflorum); assay: Test E pre-/postemergence: panicum, fall; settings: scale 0 to 100
Text: as §1, §2

[5] = tested on: foxtail, giant (giant foxtail, Setaria faberii); assay: Test E pre-/postemergence: foxtail, giant; settings: Preemergence, scale 0 to 100
Text: as §1, §2

[6] = tested on: sandbur (southern sandbur, Cenchrus echinatus); assay: Test E pre-/postemergence: sandbur; settings: scale 0 to 100
Text: as §1, §2

[7] = tested on: arrowleaf sida (Sida rhombifolia); assay: Test E pre-/postemergence: arrowleaf sida; settings: scale 0 to 100
Text: as §1, §2

[8] = tested on: beggarticks (hairy beggarticks, Bidens pilosa); assay: Test E pre-/postemergence: beggarticks; settings: scale 0 to 100
Text: as §1, §2

Cc1nn(-c2ccc(C(F)(F)F)cn2)nc1Oc1ccnc(C(F)(F)F)c1 [Compound 23]
Plant response rating: Pigweed, Palmer ([1]; Preemergence, 16 g ai/ha): 90 | Plant response rating: Pigweed, Palmer ([1]; Preemergence, 31 g ai/ha): 90 | Plant response rating: Pigweed, Palmer ([1]; Preemergence, 62 g ai/ha): 100 | Plant response rating: Pigweed, Palmer ([1]; Preemergence, 125 g ai/ha): 100 | Plant response rating: Pigweed, Palmer ([1]; Preemergence, 250 g ai/ha): 100 | Plant response rating: Waterhemp ([2]; Preemergence, 16 g ai/ha): 0 | Plant response rating: Waterhemp ([2]; Preemergence, 31 g ai/ha): 80 | Plant response rating: Waterhemp ([2]; Preemergence, 62 g ai/ha): 80 | Plant response rating: Waterhemp ([2]; Preemergence, 125 g ai/ha): 98 | Plant response rating: Waterhemp ([2]; Preemergence, 250 g ai/ha): 100 | Plant response rating: Crabgrass, Brazil ([3]; Preemergence, 16 g ai/ha): 0 | Plant response rating: Crabgrass, Brazil ([3]; Preemergence, 31 g ai/ha): 0 | Plant response rating: Crabgrass, Brazil ([3]; Preemergence, 62 g ai/ha): 65 | Plant response rating: Crabgrass, Brazil ([3]; Preemergence, 125 g ai/ha): 65 | Plant response rating: Crabgrass, Brazil ([3]; Preemergence, 250 g ai/ha): 85 | Plant response rating: Panicum, Fall ([4]; Preemergence, 16 g ai/ha): 0 | Plant response rating: Panicum, Fall ([4]; Preemergence, 31 g ai/ha): 15 | Plant response rating: Panicum, Fall ([4]; Preemergence, 62 g ai/ha): 80 | Plant response rating: Panicum, Fall ([4]; Preemergence, 125 g ai/ha): 100 | Plant response rating: Panicum, Fall ([4]; Preemergence, 250 g ai/ha): 100 | Plant response rating: Foxtail, Giant ([5]; 16 g ai/ha): 0 | Plant response rating: Foxtail, Giant ([5]; 31 g ai/ha): 5 | Plant response rating: Foxtail, Giant ([5]; 62 g ai/ha): 5 | Plant response rating: Foxtail, Giant ([5]; 125 g ai/ha): 100 | Plant response rating: Foxtail, Giant ([5]; 250 g ai/ha): 100 | Plant response rating: Sandbur ([6]; Preemergence, 16 g ai/ha): 0 | Plant response rating: Sandbur ([6]; Preemergence, 31 g ai/ha): 0 | Plant response rating: Sandbur ([6]; Preemergence, 62 g ai/ha): 0 | Plant response rating: Sandbur ([6]; Preemergence, 125 g ai/ha): 25 | Plant response rating: Sandbur ([6]; Preemergence, 250 g ai/ha): 65 | Plant response rating: Arrowleaf Sida ([7]; Preemergence, 16 g ai/ha): 0 | Plant response rating: Arrowleaf Sida ([7]; Preemergence, 31 g ai/ha): 0 | Plant response rating: Arrowleaf Sida ([7]; Preemergence, 62 g ai/ha): 0 | Plant response rating: Arrowleaf Sida ([7]; Preemergence, 125 g ai/ha): 0 | Plant response rating: Arrowleaf Sida ([7]; Preemergence, 250 g ai/ha): 35

Cc1nn(-c2ccc(C(F)(F)F)cc2)nc1Oc1ccnc(C(F)(F)F)c1 [Compound 120]
Plant response rating: Pigweed, Palmer ([1]; Postemergence, 8 g ai/ha): 90 | Plant response rating: Pigweed, Palmer ([1]; Postemergence, 16 g ai/ha): 90 | Plant response rating: Pigweed, Palmer ([1]; Postemergence, 31 g ai/ha): 90 | Plant response rating: Pigweed, Palmer ([1]; Postemergence, 62 g ai/ha): 95 | Plant response rating: Pigweed, Palmer ([1]; Postemergence, 125 g ai/ha): 100 | Plant response rating: Pigweed, Palmer ([1]; Preemergence, 16 g ai/ha): 65 | Plant response rating: Pigweed, Palmer ([1]; Preemergence, 31 g ai/ha): 100 | Plant response rating: Pigweed, Palmer ([1]; Preemergence, 62 g ai/ha): 100 | Plant response rating: Pigweed, Palmer ([1]; Preemergence, 125 g ai/ha): 100 | Plant response rating: Pigweed, Palmer ([1]; Preemergence, 250 g ai/ha): 100 | Plant response rating: Waterhemp ([2]; Postemergence, 8 g ai/ha): 30 | Plant response rating: Waterhemp ([2]; Postemergence, 16 g ai/ha): 50 | Plant response rating: Waterhemp ([2]; Postemergence, 31 g ai/ha): 65 | Plant response rating: Waterhemp ([2]; Postemergence, 62 g ai/ha): 75 | Plant response rating: Waterhemp ([2]; Postemergence, 125 g ai/ha): 75 | Plant response rating: Waterhemp ([2]; Preemergence, 16 g ai/ha): 95 | Plant response rating: Waterhemp ([2]; Preemergence, 31 g ai/ha): 98 | Plant response rating: Waterhemp ([2]; Preemergence, 62 g ai/ha): 100 | Plant response rating: Waterhemp ([2]; Preemergence, 125 g ai/ha): 100 | Plant response rating: Waterhemp ([2]; Preemergence, 250 g ai/ha): 100 | Plant response rating: Crabgrass, Brazil ([3]; Postemergence, 8 g ai/ha): 10 | Plant response rating: Crabgrass, Brazil ([3]; Postemergence, 16 g ai/ha): 15 | Plant response rating: Crabgrass, Brazil ([3]; Postemergence, 31 g ai/ha): 25 | Plant response rating: Crabgrass, Brazil ([3]; Postemergence, 62 g ai/ha): 30 | Plant response rating: Crabgrass, Brazil ([3]; Postemergence, 125 g ai/ha): 40 | Plant response rating: Crabgrass, Brazil ([3]; Preemergence, 16 g ai/ha): 90 | Plant response rating: Crabgrass, Brazil ([3]; Preemergence, 31 g ai/ha): 100 | Plant response rating: Crabgrass, Brazil ([3]; Preemergence, 62 g ai/ha): 100 | Plant response rating: Crabgrass, Brazil ([3]; Preemergence, 125 g ai/ha): 100 | Plant response rating: Crabgrass, Brazil ([3]; Preemergence, 250 g ai/ha): 100 | Plant response rating: Panicum, Fall ([4]; Postemergence, 8 g ai/ha): 5 | Plant response rating: Panicum, Fall ([4]; Postemergence, 16 g ai/ha): 10 | Plant response rating: Panicum, Fall ([4]; Postemergence, 31 g ai/ha): 10 | Plant response rating: Panicum, Fall ([4]; Postemergence, 62 g ai/ha): 20 | Plant response rating: Panicum, Fall ([4]; Postemergence, 125 g ai/ha): 25 | Plant response rating: Panicum, Fall ([4]; Preemergence, 16 g ai/ha): 95 | Plant response rating: Panicum, Fall ([4]; Preemergence, 31 g ai/ha): 95 | Plant response rating: Panicum, Fall ([4]; Preemergence, 62 g ai/ha): 100 | Plant response rating: Panicum, Fall ([4]; Preemergence, 125 g ai/ha): 100 | Plant response rating: Panicum, Fall ([4]; Preemergence, 250 g ai/ha): 100 | Plant response rating: Foxtail, Giant ([5]; 16 g ai/ha): 85 | Plant response rating: Foxtail, Giant ([5]; 31 g ai/ha): 100 | Plant response rating: Foxtail, Giant ([5]; 62 g ai/ha): 100 | Plant response rating: Foxtail, Giant ([5]; 125 g ai/ha): 100 | Plant response rating: Foxtail, Giant ([5]; 250 g ai/ha): 100 | Plant response rating: Sandbur ([6]; Postemergence, 8 g ai/ha): 10 | Plant response rating: Sandbur ([6]; Postemergence, 16 g ai/ha): 10 | Plant response rating: Sandbur ([6]; Postemergence, 31 g ai/ha): 20 | Plant response rating: Sandbur ([6]; Postemergence, 62 g ai/ha): 30 | Plant response rating: Sandbur ([6]; Postemergence, 125 g ai/ha): 35 | Plant response rating: Sandbur ([6]; Preemergence, 16 g ai/ha): 5 | Plant response rating: Sandbur ([6]; Preemergence, 31 g ai/ha): 5 | Plant response rating: Sandbur ([6]; Preemergence, 62 g ai/ha): 5 | Plant response rating: Sandbur ([6]; Preemergence, 125 g ai/ha): 20 | Plant response rating: Sandbur ([6]; Preemergence, 250 g ai/ha): 75 | Plant response rating: Arrowleaf Sida ([7]; Postemergence, 8 g ai/ha): 30 | Plant response rating: Arrowleaf Sida ([7]; Postemergence, 16 g ai/ha): 40 | Plant response rating: Arrowleaf Sida ([7]; Postemergence, 31 g ai/ha): 40 | Plant response rating: Arrowleaf Sida ([7]; Postemergence, 62 g ai/ha): 50 | Plant response rating: Arrowleaf Sida ([7]; Postemergence, 125 g ai/ha): 50 | Plant response rating: Arrowleaf Sida ([7]; Preemergence, 16 g ai/ha): 0 | Plant response rating: Arrowleaf Sida ([7]; Preemergence, 31 g ai/ha): 0 | Plant response rating: Arrowleaf Sida ([7]; Preemergence, 62 g ai/ha): 0 | Plant response rating: Arrowleaf Sida ([7]; Preemergence, 125 g ai/ha): 15 | Plant response rating: Arrowleaf Sida ([7]; Preemergence, 250 g ai/ha): 50 | Plant response rating: Beggarticks ([8]; Postemergence, 8 g ai/ha): 10 | Plant response rating: Beggarticks ([8]; Postemergence, 16 g ai/ha): 10 | Plant response rating: Beggarticks ([8]; Postemergence, 31 g ai/ha): 20 | Plant response rating: Beggarticks ([8]; Postemergence, 62 g ai/ha): 30 | Plant response rating: Beggarticks ([8]; Postemergence, 125 g ai/ha): 35 | Plant response rating: Beggarticks ([8]; Preemergence, 16 g ai/ha): 0 | Plant response rating: Beggarticks ([8]; Preemergence, 31 g ai/ha): 0 | Plant response rating: Beggarticks ([8]; Preemergence, 125 g ai/ha): 80

From patent US9302999B2, “Substituted triazoles as herbicides” (E. I. DU PONT DE NEMOURS AND COMPANY, priority 2012, dated 2016)
